Source: ChEMBL document CHEMBL5034015, “Structure-Based Optimization of 3-Phenyl-N-(2-(3-phenylureido)ethyl)thiophene-2-sulfonamide Derivatives as Selective Mcl-1 Inhibitors” (J Med Chem, 2021)
Active and inactive are the calls of the source.

Columns and labels:
RS4-11 = assay: cells; settings: Homo sapiens, RS4-11, 48 h
Description: Cytotoxicity against human RS4-11 cells assessed as inhibition of cell growth incubated for 48 hrs by CCK8 assay

Bcl-2-like protein 1 [1] = biological target: T1, Bcl-2-like protein 1 (Homo sapiens, UniProt Q07817); assay: Binding affinity to full length human Bcl-xl expressed in Escherichia coli BL21 (DE3) assessed as inhibition constant preincubated for 30 mins followed by 5-FAM-QEDIIIINIARHLAQVGDSMD-RSIPPG tracer addition and measured after 20 mins by fluorescence polarization assay
HEK-293T = assay: Cytotoxicity against HEK293T cells assessed as reduction in cell viability incubated for 48 hrs by CCK8 assay; settings: Homo sapiens
HeLa [2] = assay: cells; settings: Homo sapiens, 48 h
Description: Cytotoxicity against human HeLa cells assessed as inhibition of cell growth incubated for 48 hrs by CCK8 assay

[3] = biological target: T2, Induced myeloid leukemia cell differentiation protein Mcl-1 (Homo sapiens, UniProt Q07820); assay: Binding affinity to full length human MCL1 expressed in Escherichia coli BL21 (DE3) assessed as inhibition constant preincubated for 30 mins followed by 5-FAM-QEDIIIINIARHLAQVGDSMD-RSIPPG tracer addition and measured after 20 mins by fluorescence polarization assay
[4] = biological target: T3, Apoptosis regulator Bcl-2 (Homo sapiens, UniProt P10415); assay: Binding affinity to full length human Bcl-2 expressed in Escherichia coli BL21 (DE3) assessed as inhibition constant preincubated for 30 mins followed by 5-FAM-QEDIIIINIARHLAQVGDSMD-RSIPPG tracer addition and measured after 20 mins by fluorescence polarization assay
HL-60 = assay: cells; settings: Homo sapiens, HL-60, 48 h
Description: Cytotoxicity against human HL-60 cells assessed as inhibition of cell growth incubated for 48 hrs by CCK8 assay

Bcl-2-like protein 1 [5] = biological target: T1, Bcl-2-like protein 1; assay: Binding affinity to full length human Bcl-xl expressed in Escherichia coli BL21 (DE3) at up to 100 uM preincubated for 30 mins followed by 5-FAM-QEDIIIINIARHLAQVGDSMD-RSIPPG tracer addition and measured after 20 mins by fluorescence polarization assay; settings: dose microM <=100, time 50.0 min
[6] = biological target: T3, Apoptosis regulator Bcl-2; assay: Binding affinity to full length human Bcl-2 expressed in Escherichia coli BL21 (DE3) at up to 100 uM preincubated for 30 mins followed by 5-FAM-QEDIIIINIARHLAQVGDSMD-RSIPPG tracer addition and measured after 20 mins by fluorescence polarization assay; settings: dose microM <=100, time 50.0 min
[7] = biological target: T2, Induced myeloid leukemia cell differentiation protein Mcl-1; assay: Binding affinity to full length human MCL1 expressed in Escherichia coli BL21 (DE3) at up to 100 uM preincubated for 30 mins followed by 5-FAM-QEDIIIINIARHLAQVGDSMD-RSIPPG tracer addition and measured after 20 mins by fluorescence polarization assay; settings: dose microM <=100, time 50.0 min
HeLa [8] = assay: Cytotoxicity against human HeLa cells assessed as cell viability at 20 uM incubated for 48 hrs by CCK8 assay relative to control; format: functional; settings: read-out: Activity
[9] = Cytotoxicity against HEK293T cells assessed as cell viability at 20 uM incubated for 48 hrs by CCK8 assay relative to control; format: cell-based, HEK-293T; settings: human, read-out: Activity
[10] = biological target: T2, Induced myeloid leukemia cell differentiation protein Mcl-1; assay: Binding affinity to 15N-labeled human MCL1 (172 to 327 residues) expressed in Escherichia coli BL21 (DE3) assessed as chemical shift at M250 residue at 0.3 mM incubated for 1 hr by 15N HSQC NMR spectroscopy analysis
[11] = biological target: T2, Induced myeloid leukemia cell differentiation protein Mcl-1; assay: Binding affinity to 15N-labeled human MCL1 (172 to 327 residues) expressed in Escherichia coli BL21 (DE3) assessed as chemical shift at L235 residue at 0.3 mM incubated for 1 hr by 15N HSQC NMR spectroscopy analysis
[12] = biological target: T2, Induced myeloid leukemia cell differentiation protein Mcl-1; assay: Binding affinity to 15N-labeled human MCL1 (172 to 327 residues) expressed in Escherichia coli BL21 (DE3) assessed as chemical shift at M231 residue at 0.3 mM incubated for 1 hr by 15N HSQC NMR spectroscopy analysis
[13] = biological target: T2, Induced myeloid leukemia cell differentiation protein Mcl-1; assay: Binding affinity to 15N-labeled human MCL1 (172 to 327 residues) expressed in Escherichia coli BL21 (DE3) assessed as chemical shift at H224 residue at 0.3 mM incubated for 1 hr by 15N HSQC NMR spectroscopy analysis
[14] = biological target: T2, Induced myeloid leukemia cell differentiation protein Mcl-1; assay: Binding affinity to 15N-labeled human MCL1 (172 to 327 residues) expressed in Escherichia coli BL21 (DE3) assessed as chemical shift at F228 residue at 0.3 mM incubated for 1 hr by 15N HSQC NMR spectroscopy analysis
[15] = biological target: T2, Induced myeloid leukemia cell differentiation protein Mcl-1; assay: Binding affinity to 15N-labeled human MCL1 (172 to 327 residues) expressed in Escherichia coli BL21 (DE3) assessed as chemical shift at R263 residue at 0.3 mM incubated for 1 hr by 15N HSQC NMR spectroscopy analysis
[16] = biological target: T3, Apoptosis regulator Bcl-2; assay: Binding affinity to full length human Bcl-2 expressed in Escherichia coli BL21 (DE3) at 100 uM preincubated for 30 mins followed by 5-FAM-QEDIIIINIARHLAQVGDSMD-RSIPPG tracer addition and measured after 20 mins by fluorescence polarization assay relative to control; settings: time 50.0 min
Bcl-2-like protein 1 [17] = biological target: T1, Bcl-2-like protein 1; assay: Binding affinity to full length human Bcl-xl expressed in Escherichia coli BL21 (DE3) at 100 uM preincubated for 30 mins followed by 5-FAM-QEDIIIINIARHLAQVGDSMD-RSIPPG tracer addition and measured after 20 mins by fluorescence polarization assay relative to control; settings: time 50.0 min
[18] = biological target: T2, Induced myeloid leukemia cell differentiation protein Mcl-1; assay: Binding affinity to full length human MCL1 expressed in Escherichia coli BL21 (DE3) at 100 uM preincubated for 30 mins followed by 5-FAM-QEDIIIINIARHLAQVGDSMD-RSIPPG tracer addition and measured after 20 mins by fluorescence polarization assay relative to control; settings: time 50.0 min

T3 sequence (P10415 whole entry): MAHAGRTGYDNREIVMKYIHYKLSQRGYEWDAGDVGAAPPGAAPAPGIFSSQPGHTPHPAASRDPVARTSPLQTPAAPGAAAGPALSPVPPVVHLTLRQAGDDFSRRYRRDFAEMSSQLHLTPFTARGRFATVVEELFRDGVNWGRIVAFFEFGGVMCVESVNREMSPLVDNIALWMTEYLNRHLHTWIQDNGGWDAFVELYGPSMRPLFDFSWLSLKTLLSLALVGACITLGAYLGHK
T1 sequence (Q07817 whole entry): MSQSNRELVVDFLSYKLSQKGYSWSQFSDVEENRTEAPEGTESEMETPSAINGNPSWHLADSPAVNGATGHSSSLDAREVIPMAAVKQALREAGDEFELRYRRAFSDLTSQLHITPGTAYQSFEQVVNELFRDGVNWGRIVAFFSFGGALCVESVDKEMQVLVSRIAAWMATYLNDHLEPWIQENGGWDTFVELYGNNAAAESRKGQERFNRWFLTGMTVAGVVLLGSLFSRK
T2 sequence (Q07820 whole entry): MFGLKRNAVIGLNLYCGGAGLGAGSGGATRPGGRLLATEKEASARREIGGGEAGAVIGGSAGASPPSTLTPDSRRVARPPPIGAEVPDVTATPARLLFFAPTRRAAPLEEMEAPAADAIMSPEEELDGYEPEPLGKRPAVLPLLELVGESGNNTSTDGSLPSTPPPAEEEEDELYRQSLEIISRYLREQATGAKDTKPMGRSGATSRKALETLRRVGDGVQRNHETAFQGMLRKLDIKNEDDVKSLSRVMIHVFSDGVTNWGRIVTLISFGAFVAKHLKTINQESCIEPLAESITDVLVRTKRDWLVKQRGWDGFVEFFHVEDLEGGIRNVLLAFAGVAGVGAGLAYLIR

O=C(NCCNS(=O)(=O)c1cc(-c2ccccc2Oc2ccc(O)c(O)c2)cs1)Nc1cc(Cl)cc(Cl)c1
IC50 (RS4-11): > 50 µM
Ki (Bcl-2-like protein 1 [1]): 1.7 µM
IC50 (HEK-293T): > 20 µM
IC50 (HeLa [2]): > 50 µM
Ki [3]: 0.77 µM
Ki [4]: 8.4 µM
IC50 (HL-60): > 20 µM

O=C(NCCNS(=O)(=O)c1sccc1-c1ccccc1Oc1ccc(O)c(O)c1)Nc1cc(C(F)(F)F)cc(C(F)(F)F)c1
IC50 (RS4-11): 4.9 µM
IC50 (HEK-293T): 8.9 µM
IC50 (HeLa [2]): > 50 µM
Ki [3]: 2.1 µM
Ki [4]: 17 µM
IC50 (HL-60): 5.7 µM
Activity (Bcl-2-like protein 1 [5]): inactive

O=S(=O)(NCCNC(=S)Nc1cc(C(F)(F)F)cc(C(F)(F)F)c1)c1ccc(-c2ccccc2Oc2ccc(O)c(O)c2)s1
IC50 (RS4-11): 10.3 µM
Ki (Bcl-2-like protein 1 [1]): 0.93 µM
IC50 (HEK-293T): 12.3 µM
IC50 (HeLa [2]): > 20 µM
Ki [3]: 0.37 µM
Ki [4]: 2.6 µM
IC50 (HL-60): 18.3 µM

O=C(NCCNS(=O)(=O)c1cc(-c2ccccc2Oc2ccc(O)c(O)c2)cs1)Nc1cc(C(F)(F)F)cc(C(F)(F)F)c1
IC50 (RS4-11): 3.9 µM
Ki (Bcl-2-like protein 1 [1]): 1.7 µM
IC50 (HEK-293T): > 50 µM
IC50 (HeLa [2]): > 20 µM
Ki [3]: 0.51 µM
Ki [4]: 5.2 µM
IC50 (HL-60): 1.3 µM

O=[N+]([O-])c1ccc(NC(=S)NCCNS(=O)(=O)c2ccc(-c3ccccc3OCc3cccc(O)c3)s2)cc1
IC50 (RS4-11): 10.1 µM
Activity [6]: inactive
IC50 (HEK-293T): > 20 µM
Activity [7]: inactive
viability at 20 µM (HeLa [8]): 28%
IC50 (HL-60): 10.8 µM
Activity (Bcl-2-like protein 1 [5]): inactive

O=C(NCCNS(=O)(=O)c1ccc(-c2ccccc2O[C@H]2CC[C@H](O)CC2)s1)Nc1cc(C(F)(F)F)cc(C(F)(F)F)c1
IC50 (RS4-11): 10.1 µM
Activity [6]: inactive
Activity [7]: inactive
viability at 48 h, 20 µM [9]: 50%
IC50 (HeLa [2]): > 20 µM
IC50 (HL-60): 7.1 µM
Activity (Bcl-2-like protein 1 [5]): inactive

O=S(=O)(NCCNC(=S)Nc1cc(C(F)(F)F)cc(C(F)(F)F)c1)c1sccc1-c1ccccc1Oc1ccc(O)c(O)c1
IC50 (RS4-11): 4.8 µM
IC50 (HEK-293T): 7.5 µM
IC50 (HeLa [2]): > 50 µM
Ki [3]: 0.84 µM
Ki [4]: 5.6 µM
IC50 (HL-60): 4.3 µM
Activity (Bcl-2-like protein 1 [5]): inactive

Cc1nn(C)c(COc2ccc(N3CCN(S(=O)(=O)N(C)C)CC3)cc2)c1-c1cccc2c(CCCOc3cccc4ccccc34)c(C(=O)O)n(CCN3CCOCC3)c12
IC50 (RS4-11): 7.31 µM
Activity [6]: inactive
Activity [10]: Active
Activity [11]: Active
IC50 (HEK-293T): > 20 µM
Activity [12]: Active
Activity [13]: Active
Activity [14]: Active
IC50 (HeLa [2]): > 20 µM
Ki [3]: < 0.001 µM
Activity [15]: Active
IC50 (HL-60): 2.46 µM
Activity (Bcl-2-like protein 1 [5]): inactive

O=C(NCCNS(=O)(=O)c1ccc(-c2ccccc2OCc2ccccc2)s1)Nc1cc(Cl)cc(Cl)c1
IC50 (RS4-11): > 20 µM
Activity [6]: inactive
Activity [7]: inactive
viability at 48 h, 20 µM [9]: 41%
IC50 (HeLa [2]): > 20 µM
IC50 (HL-60): 11.7 µM
Activity (Bcl-2-like protein 1 [5]): inactive

COc1ccc(Oc2ccccc2-c2ccsc2S(=O)(=O)N2CCN(C(=S)Nc3ccc([N+](=O)[O-])cc3)CC2)cc1OC
IC50 (RS4-11): > 50 µM
inhibition [16]: 16%
inhibition (Bcl-2-like protein 1 [17]): 18%
IC50 (HEK-293T): > 20 µM
inhibition [18]: 33%
IC50 (HeLa [2]): > 50 µM
IC50 (HL-60): > 50 µM
